The results in this text go back to PMC5454592, “Pharmacological and Toxicological Properties of the Potent Oral γ-Secretase Modulator BPN-15606” (The Journal of Pharmacology and Experimental Therapeutics, 2017).

Structures are written as SMILES.

For one data set, the system named is Aβ neuritic plaques. Briefly: Chronic repeat-dose efficacy in PSAPP transgenic mice (Thioflavin S plaque load). The data set is classed as in vivo. The method, then: Thirty-five female double-transgenic mice, model presenilin amyloid precursor protein ([Jankowsky et al., 2004]), purchased from The Jackson Laboratory (Bar Harbor, ME) [B6.C3-Tg (APPswe, PSEN1dE9) 85Dbo/Mmjax, stock no. 0034829] and then bred in-house, were used in the study at 90 days of age. The mice were housed in a temperature-controlled room at a constant 22°C in a 12:12-hour light/dark cycle (lights off at 18:00), with food and water available ad libitum. Age-matched mice were housed by treatment group in groups of two to four per cage. All experimental procedures were reviewed and approved by Institutional Animal Care and Use Committee at University of California, San Diego. Subjects were randomly assigned to either the drug group (BPN-15606) or vehicle, with individual groups ranging from 9 to 10 mice. Mice were treated for 6 months with BPN-15606 at a dose of 10 mg/kg/d. For the drug administration, BPN-15606 was milled into standard rodent chow, processed by Research Diets (New Brunswick, NJ). All animals were weighed three times weekly to assess any adverse effects on normal weight gain during the 6-month treatment period. Food consumption was determined by weighing the metal cage, including the chow, to the nearest 0.1 g.
To determine Aβ fibril plaque load, floating coronal sections from AD and wild-type mice, n = 4 for each group, were washed in miliQ water and mounted on Fisherbrand Superfrost Plus microscope slides, before being processed for 1% (w/v) Thioflavin S staining. All images were taken with Leica (Mannheim, Germany) fluorescence microscope at 5× and with the same exposure across all images. The percent plaque within specified areas of a series of hippocampal and frontal cortex sections was quantified using ImageJ software from National Institutes of Health. Images were converted to 8-bit grayscale, and area of interest was traced and determined. Brightness and B/W threshold were adjusted appropriately and consistently across all images. The area of plaque particles within the area of interest was obtained, and the percent plaque was calculated. […]

Data set [1] in a line: Toxicokinetics in NHP (300 mg/kg repeat dose). The data set is classed as in vivo, cynomolgus macaques. As to conditions: cynomolgus monkey. The method, then: The objectives of this study were to determine the MTD of BPN-15606, characterize potential toxicity, and calculate toxicokinetic parameters of BPN-15606 in adult male and female cynomolgus macaques following daily po dose administration at a near-MTD dose of BPN-15606 for 7 consecutive days. In the dose escalation phase to establish the MTD (phase A), male and female cynomolgus macaques (n = 2/sex) were administered single doses of BPN-15606 at 3, 10, 30, 100, and 300 mg/kg, with 2 to 4 days between each dose escalation (Fig. 10). […] The plasma drug concentrations at the approximate Tmax increased in a dose-dependent manner. […] Comprehensive evaluation of clinical pathology parameters (clinical chemistry, hematology), gross pathology, and histopathologic parameters was carried out at SRI International, according to their standardized protocols. Tissues examined histopathologically included the following: liver, lung, stomach, duodenum, colon, spleen, pancreas, thymus, heart, brain, and kidney.

A further data set can be described thus: in vivo. As to conditions: rat. An excerpt:
The objectives of this toxicity study were to determine maximum tolerated dose (MTD), characterize the potential toxicity, and calculate toxicokinetic parameters of BPN-15606 in adult male Sprague–Dawley rats (8–10 weeks of age) following daily po dose administration for 7 consecutive days, and to evaluate its potential to damage chromosomes or cause mitotic spindle abnormalities in vivo, as measured by the incidence of micronucleus formation in RNA-containing erythrocytes (bone marrow micronucleus assay). An overview of the study design is presented in Supplemental Table 8. Male rats were administered BPN-15606 po for 7 consecutive days at 30, 100, or 300 mg/kg (groups 2, 3, and 4). A control group (group 1) was given vehicle, 15% Labrasol/85% sterile water, at an equivalent dose volume (10 ml/kg). A 375 mg/kg dose (group 5) was included for determination of day 1 plasma drug levels. Clinical observations were recorded twice daily.
All rats in groups 1, 2, and 3 (0, 30, and 100 mg/kg, respectively) survived until their scheduled day 8 sacrifice, and all tissues specified for histologic evaluation were collected. None of the group 4 (300 mg/kg) animals survived the 7-day dosing period: three were sacrificed in moribund condition, and two were found dead. Necropsy examinations were performed on all rats, but, for group 4 animals, tissues for histopathologic examination were collected only from those rats that were sacrificed in moribund condition. Histopathology assessment was conducted on all tissues collected from all animals in groups 1 and 3, and all tissues collected from group 4 animals euthanized moribund. From group 2 rats, the following tissues were examined histopathologically: duodenum; jejunum; ileum; liver; lung; pancreas; spleen; stomach; and thymus, which were evaluated based on findings at the higher dose levels. When present, grossly altered tissues were examined histopathologically from all group 1, 2, and 3 rats, and from moribund sacrifice group 4 rats. Microscopic data were recorded, and a four-step grading system (minimal, mild, moderate, and marked) was used to define gradable changes. Terminology for data capture was consistent with International Harmonization of Nomenclature and Diagnostic Criteria as promulgated by the Society of Toxicologic Pathology.

Another data set concerns the target γ-secretase (Homo sapiens, UniProt P49768). In words: SHSY5Y-APP cell-based MSD Aβ triplex screening assay. Also noted: endogenous in cells; host or cells: human SH-SY5Y neuroblastoma cells stably overexpressing human APP751 wild-type. The method, then: All Aβ assays, including the anti-Aβ immunoprecipitation/matrix-assisted laser desorption/ionization time of flight, were carried out as described previously ([Wagner et al., 2014]).

Where [2] appears, read: 10 mg/kg/d in chow for 6 months.

As to `COc1nc(-c2cc(C)c(N[C@@H](C)c3ccc(F)cc3)nn2)ccc1-n1cnc(C)c1` [BPN-15606, (S)-N-(1-(4-fluorophenyl)ethyl)-6-(6-methoxy-5-(4-methyl-1H-imidazol-1-yl)pyridin-2-yl)-4-methylpyridazin-3-amine], the “necropsy findings at end of study” value in the data set on Aβ neuritic plaques (10 mg/kg/d for 6 months) is reported as “no significant adverse findings”. Further, in the data set on Aβ neuritic plaques (setting [2]), the “accumulation of Aβ neuritic plaques in cortex (Thioflavin S, densitometry)” value is listed as “significantly reduced accumulation of Aβ neuritic plaques” and the “accumulation of Aβ neuritic plaques in hippocampus (Thioflavin S, densitometry)” value is reported as “significantly reduced accumulation of Aβ neuritic plaques”. The half-life in data set [1] (both sexes, plasma, po, 300 mg/kg, cynomolgus macaques, 300 mg/kg po, day 1) is 8.7 h. Further, the half-life in data set [1] (both sexes, plasma, po, 300 mg/kg, cynomolgus macaques, 300 mg/kg po, day 6) was 10.2 h. Also, the Tmax in data set [1] (both sexes, plasma, cynomolgus macaques, 300 mg/kg po) is 2 to 4 h. In addition, the “exposure (AUClast) day 6 relative to day 1” value in data set [1] (both, in vivo, po, 300 mg/kg) is reported as “about 1.7 fold”. Further, the MTD at 7 days in “in vivo” (male, Sprague-Dawley) was roughly 100 mg/kg. Also, the mortality entry in the data set “in vivo” (male, Sprague-Dawley, 300 mg/kg, 7 days) is listed as “either found dead or sacrificed in moribund condition on day 3 or 4”. The NOEL in “in vivo” (male, Sprague-Dawley, 7 days) is no less than 30 mg/kg. This compound showed an MTD at 7 days in “in vivo” (male, Sprague-Dawley, po) of roughly 100 mg/kg/day. For the same compound, in the data set “in vivo” (male, Sprague-Dawley, po, 7 days), the “no-observed-effect level (NOEL)” value was 30 mg/kg/day. Besides, in “in vivo” (100 mg/kg), the “absolute number and percent of reticulocytes, of the control values” is “about 20%”; the “decrease in mean corpuscular hemoglobin” value is given as 6.9%; the “increase in RBC” value came out at 10.5%; the increase in hemoglobin is recorded as 10.9%. In “in vivo” (300 mg/kg), the liver histopathology entry was “Hepatocyte basophilia, hypertrophy, and lipidosis”. The clinical observations entry in “in vivo” (po, 30 mg/kg) is “appeared normal throughout the treatment period”. Also, the AβTotal entry on γ-secretase (SHSY5Y-APP cells) is recorded as “No change”. In addition, the IC50 at γ-secretase (human SHSY5Y neuroblastoma cells stably overexpressing human APP751 wild-type, read-out: Aβ42 IC50) was 7 nM.

In general, half-life refers to the time needed for the level to fall by half in the phase considered. A lower half-life goes with rapid decline. One may read the Tmax as the time from dosing to the highest level. As a reminder, the IC50 is the concentration at which inhibition is half-maximal.
